# Measurements: patent CN116919972A, “去氧胆酸在制备抗水生病毒感染的药物或添加剂中的应用” (priority 2023, dated 2023)
# Columns and labels:
# [1] = test system: SVCV-G protein (SVCV-G蛋白); assay: Inhibition of SVCV-G protein expression in EPC cells (western blot); format: cell-based; conditions: 1-50 μM, increasing concentration, 0.1 MOI SVCV, 28 °C, 24 h
# SVCV (鲤春病毒血症病毒) [2] = assay: Inhibition of SVCV-G gene expression in EPC cells (RT-qPCR); format: cell-based; conditions: 12 h pretreatment, 0.1 MOI SVCV, 28 °C, 24 h
# rainbow trout (虹鳟) = assay: Toxicity to rainbow trout by organ histology (H&E), uninfected; format: in vivo; conditions: DCA-fed (0.2 mg/fish), liver, intestine, kidney histology
# SVCV (鲤春病毒血症病毒) [3] = assay: Viral load in organs of SVCV-infected zebrafish (absolute quantification of SVCV-G); format: in vivo; conditions: 5 d after SVCV infection, DCA 0.2 mg/fish fed
# IHNV (传染性造血器官坏死病病毒) [4] = assay: Survival of IHNV-infected rainbow trout fed deoxycholic acid; format: in vivo; conditions: 0.2 mg/fish per feeding, 7 days before injection of 10^4 PFU IHNV, 14 d observation, 16 °C; control 30%
# SVCV (鲤春病毒血症病毒) [5] = assay: Histopathology (H&E) of organs of SVCV-infected zebrafish; format: in vivo; conditions: zebrafish liver, intestine, kidney, 5 d after SVCV infection, versus SVCV infection group
# zebrafish (斑马鱼) = assay: Toxicity to zebrafish by organ histology (H&E), uninfected; format: in vivo; conditions: DCA-fed (0.2 mg/fish), liver, intestine, kidney histology
# IHNV (传染性造血器官坏死病病毒) [6] = assay: Histopathology (H&E) of organs of IHNV-infected rainbow trout; format: in vivo; conditions: rainbow trout liver, intestine, kidney, 5 d after IHNV infection, versus IHNV infection group
# IHNV (传染性造血器官坏死病病毒) [7] = assay: Viral load in organs of IHNV-infected rainbow trout (IHNV-G quantification); format: in vivo; conditions: 5 d after IHNV infection, DCA 0.2 mg/fish fed
# IHNV (传染性造血器官坏死病病毒) [8] = assay: Inhibition of IHNV in EPC cells (RT-qPCR of IHNV-G gene); format: cell-based; conditions: 50 μM, 0.1 MOI IHNV, 16 °C, 24 h, P<0.0001 vs control
# SVCV (鲤春病毒血症病毒) [9] = assay: Survival of SVCV-infected zebrafish fed deoxycholic acid; format: in vivo; conditions: 0.2 mg/fish per feeding, 7 days before injection of 10^4 PFU SVCV, 14 d observation, 16 °C; control 23.33%
# SVCV (鲤春病毒血症病毒) [10] = assay: Inhibition of SVCV virus particle formation (plaque assay on EPC cell supernatant); format: cell-based; conditions: 50 μM, EPC cells, 0.1 MOI SVCV, 28 °C, 24 h; control 10^6.11 PFU/mL
compound,measurement,setting,value
C[C@H](CCC(=O)O)[C@H]1CC[C@H]2[C@@H]3CC[C@@H]4C[C@H](O)CC[C@]4(C)[C@H]3C[C@H](O)[C@]12C [去氧胆酸],SVCV G protein expression compared with control,[1],依次降低
same,inhibition at 1 µM,"SVCV (鲤春病毒血症病毒) [2]; 1 μM, P<0.01, read-out: decrease of SVCV-G gene expression relative to control",30.2%
same,inhibition at 5 µM,"SVCV (鲤春病毒血症病毒) [2]; 5 μM, P<0.001, read-out: decrease of SVCV-G gene expression relative to control",49.2%
same,inhibition at 10 µM,"SVCV (鲤春病毒血症病毒) [2]; 10 μM, P<0.001, read-out: decrease of SVCV-G gene expression relative to control",50.7%
same,inhibition at 20 µM,"SVCV (鲤春病毒血症病毒) [2]; 20 μM, P<0.0001, read-out: decrease of SVCV-G gene expression relative to control",68%
same,inhibition at 50 µM,"SVCV (鲤春病毒血症病毒) [2]; 50 μM, P<0.0001, read-out: decrease of SVCV-G gene expression relative to control",92%
same,toxicity to rainbow trout,rainbow trout (虹鳟),没有毒性
same,viral load in intestine,SVCV (鲤春病毒血症病毒) [3]; intestine,显著降低
same,viral load in kidney,SVCV (鲤春病毒血症病毒) [3]; kidney,显著降低
same,viral load in liver,SVCV (鲤春病毒血症病毒) [3]; liver,显著降低
same,survival rate of IHNV-infected rainbow trout,IHNV (传染性造血器官坏死病病毒) [4],60%
same,pathological damage caused by virus infection in organs,SVCV (鲤春病毒血症病毒) [5],明显减轻
same,toxicity to zebrafish,zebrafish (斑马鱼),没有毒性
same,pathological damage caused by virus infection in organs,IHNV (传染性造血器官坏死病病毒) [6],明显减轻
same,viral load in intestine,IHNV (传染性造血器官坏死病病毒) [7]; intestine,显著降低
same,viral load in kidney,IHNV (传染性造血器官坏死病病毒) [7]; kidney,显著降低
same,IHNV viral load,IHNV (传染性造血器官坏死病病毒) [8],显著降低
same,survival rate of SVCV-infected zebrafish,SVCV (鲤春病毒血症病毒) [9],66.67%
same,SVCV detection in cell supernatant,SVCV (鲤春病毒血症病毒) [10],无法被检测到
